IC50 data for 17 molecules are collected here from patent publication US20160145267A1, “HETEROARYL SUBSTITUTED PYRAZOLES” (BAYER PHARMA AKTIENGESELLSCHAFT, priority 2013, published 2016).

Read-outs that look alike come from different tables or passages of the source.

The test system of one assay is HeLa-MaTu-ADR cell line. Kind of assay: Proliferation assay (HeLa-MaTu-ADR cell line). Particulars: 96 h, read-out: Biological Assay 2: Proliferation assay (HeLa-MaTu-ADR cell line) median IC50. It is filed as cell-based. Here is the method: (§1) Cultivated tumor cells (cells were ordered from ATCC, except HeLa-MaTu and HeLa-MaTu-ADR, which were ordered from EPO-GmbH, Berlin) were plated at a density of 1000 to 5000 cells/well, depending on the growth rate of the respective cell line, in a 96-well multititer plate in 200 μL of their respective growth medium supplemented 10% fetal calf serum. After 24 hours, the cells of one plate (zero-point plate) were stained with crystal violet (see below), while the medium of the other plates was replaced by fresh culture medium (200 μL), to which the test substances were added in various concentrations (0 μM, as well as in the range of 0.001-10 μM; the final concentration of the solvent dimethyl sulfoxide was 0.5%). The cells were incubated for 4 days in the presence of test substances. Cell proliferation was determined by staining the cells with crystal violet: the cells were fixed by adding 20 μL/measuring point of an 11% glutaric aldehyde solution for 15 minutes at room temperature. After three washing cycles of the fixed cells with water, the plates were dried at room temperature. The cells were stained by adding 100 μL/measuring point of a 0.1% crystal violet solution (pH 3.0). After three washing cycles of the stained cells with water, the plates were dried at room temperature. The dye was dissolved by adding 100 μl/measuring point of a 10% acetic acid solution. Absorbtion was determined by photometry at a wavelength of 595 nm. The change of cell number, in percent, was calculated by normalization of the measured values to the absorbtion values of the zero-point plate (=0%) and the absorbtion of the untreated (0 μm) cells (=100%). The IC50 values were determined by means of a 4 parameter fit.

The target of assay [1] is T1, catalytic domain of human Bub1 (amino acids 704-1085) (Homo sapiens, UniProt O43683).
T1 construct: catalytic domain of human Bub1 (amino acids 704-1085); His6 (N); made in house; host or cells: Hi5 insect cells
T1 sequence (O43683 704-1085): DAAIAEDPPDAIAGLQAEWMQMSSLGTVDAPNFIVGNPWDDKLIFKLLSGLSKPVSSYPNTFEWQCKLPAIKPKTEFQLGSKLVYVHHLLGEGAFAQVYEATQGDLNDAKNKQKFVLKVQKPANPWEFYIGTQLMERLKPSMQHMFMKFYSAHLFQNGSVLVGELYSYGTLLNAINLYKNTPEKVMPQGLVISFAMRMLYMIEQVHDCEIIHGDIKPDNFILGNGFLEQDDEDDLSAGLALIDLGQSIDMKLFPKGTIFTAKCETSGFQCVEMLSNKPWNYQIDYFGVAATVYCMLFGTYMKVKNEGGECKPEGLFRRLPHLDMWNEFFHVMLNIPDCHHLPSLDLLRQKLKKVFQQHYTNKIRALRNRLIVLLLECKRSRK
Kind of assay: Bub1 kinase assay (TR-FRET). It is filed as biochemical. Here is the method:
To this end, 100-fold concentrated compound solutions (in DMSO) were previously prepared by serial dilution (1:3.4) of 2 mM stocks in a clear low volume 384-well source microtiter plate (Greiner Bio-One, Frickenhausen, Germany), from which 50 nL of compounds were transferred into a black low volume test microtiter plate from the same supplier. […] The resulting mixture (5 μL final volume) was incubated at 22° C. during 60 min., and the reaction was stopped by the addition of 5 μL of an aqueous EDTA-solution (50 mM EDTA, in 100 mM HEPES pH 7.5 and 0.2% (w/v) bovine serum albumin) which also contained the TR-FRET detection reagents (0.2 μM streptavidin-XL665 [Cisbio Bioassays, Codolet, France] and 1 nM anti-phoshoSerine antibody [Merck Millipore, cat. #35-001] and 0.4 nM LANCE EU-W1024 labeled anti-mouse IgG antibody [Perkin-Elmer, product no. AD0077, alternatively a Terbium-cryptate-labeled anti-mouse IgG antibody from Cisbio Bioassays can be used]). The stopped reaction mixture was further incubated 1 h at 22° C. in order to allow the formation of complexes between peptides and detection reagents. Subsequently, the amount of product was evaluated by measurement of the resonance energy transfer from the Eu-chelate-antibody complex recognizing the Phosphoserine residue to the streptavidin-XL665 bound to the biotin moiety of the peptide.
(In TR-FRET formats the signal depends on donor and acceptor labels being close together.)

For a further assay, the system named is NCl-H460 cell line. In words: Proliferation assay (NCI-H460 cell line). It is filed as cell-based. Particulars: Homo sapiens, NCI-H460, 96 h, read-out: Biological Assay 2: Proliferation assay (NCl-H460 cell line) median IC50. How it is done:
as §1

Another assay concerns Caco2 cell line. In words: Proliferation assay (Caco2 cell line). It is filed as cell-based. The following applies: Homo sapiens, Caco-2, 96 h, read-out: Biological Assay 2: Proliferation assay (Caco2 cell line) median IC50. Here is the method: as §1
A further assay concerns B16F10 cell line. In words: Proliferation assay (B16F10 cell line). It is filed as cell-based. Particulars: Mus musculus, B16-F10, 96 h, read-out: Biological Assay 2: Proliferation assay (B16F10 cell line) median IC50. How it is done:
as §1

Another assay concerns DU145 cell line. In words: Proliferation assay (DU145 cell line). It is filed as cell-based. Particulars: Homo sapiens, DU-145, 96 h, read-out: Biological Assay 2: Proliferation assay (DU145 cell line) median IC50. How it is done:
as §1

In another assay the test system is HeLa cell line. In words: Proliferation assay (HeLa cell line). Type of assay: cell-based. The following applies: Homo sapiens, 96 h, read-out: Biological Assay 2: Proliferation assay (HeLa cell line) median IC50. How it is done:
as §1

[2] abbreviates: 10 μM ATP, 1 μM peptide substrate, TR-FRET, read-out: Biological Assay 1: Bub1 kinase assay median IC50.
The mark [3] stands for this setting: 4 days incubation, crystal violet staining.

As to `CCOc1cc(F)c(Cn2nc(-c3nc(N)c(OC)c(Nc4ccncn4)n3)c(C)c2C2CC2)c(F)c1` [Example 2-1-5, 2-[5-cyclopropyl-1-(4-ethoxy-2,6-difluorobenzyl)-4-methyl-1H-pyrazol-3-yl]-5-methoxy-N-(pyrimidin-4-yl)pyrimidine-4,6-diamine], the IC50 in the assay with HeLa-MaTu-ADR cell line stood at 3.5 µM; in assay [1] (setting [2]), 0.0053 µM; with NCl-H460 cell line, 7.4 µM; in the assay on Caco2 cell line, 1.9 µM; in the assay on B16F10 cell line, 1.8 µM; in the assay with DU145 cell line, 6.9 µM. Further, the IC50 with HeLa cell line stood at 5.1 µM.

`CCOc1cc(F)c(Cn2nc(-c3nc(NC(=O)NC4CCCCC4)c(OC)c(Nc4ccncn4)n3)c(C)c2C2CC2)c(F)c1` [Example 2-1-17, 1-cyclohexyl-3-{2-[5-cyclopropyl-1-(4-ethoxy-2,6-difluorobenzyl)-4-methyl-1H-pyrazol-3-yl]-5-methoxy-6-(pyrimidin-4-ylamino)pyrimidin-4-yl}urea]: the IC50 in assay [1] (setting [2]) was 1.4 µM; in the assay on HeLa cell line it was 5.5 µM.

Take `CCNC(=O)Nc1c(N)nc(-c2nn(Cc3c(F)cc(OCC)cc3F)c(C3CC3)c2C)nc1Nc1ccncc1` [Example 2-1-29, 1-{4-amino-2-[5-cyclopropyl-1-(4-ethoxy-2,6-difluorobenzyl)-4-methyl-1H-pyrazol-3-yl]-6-(pyridin-4-ylamino)pyrimidin-5-yl}-3-ethylurea]: the results for the IC50 (in assay [1] (setting [2]); with HeLa cell line) were 0.019 µM and 5.3 µM, respectively.

Consider `CCOc1cc(F)c(Cn2nc(-c3nc(N)c(NS(=O)(=O)C(F)(F)F)c(Nc4ccncc4)n3)c(C)c2C2CC2)c(F)c1` [Example 2-1-31, N-{4-amino-2-[5-cyclopropyl-1-(4-ethoxy-2,6-difluorobenzyl)-4-methyl-1H-pyrazol-3-yl]-6-(pyridin-4-ylamino)pyrimidin-5-yl}-1,1,1-trifluoromethanesulfonamide], for which the IC50 in assay [1] (setting [2]) was determined as 0.0098 µM; in the assay with HeLa cell line it was 10 µM.

Take `CCOc1cc(F)c(Cn2nc(-c3nc(Nc4ccnnc4)cc(Nc4ccnnc4)n3)c(C)c2C2CC2)c(F)c1` [Example 2-2-10, 2-[5-cyclopropyl-1-(4-ethoxy-2,6-difluorobenzyl)-4-methyl-1H-pyrazol-3-yl]-N,N′-di(pyridazin-4-yl)pyrimidine-4,6-diamine]: the IC50 in assay [1] worked out at 1 µM; with HeLa cell line (setting [3]), 10 µM.

In the case of `CCOc1cc(F)c(Cn2nc(-c3nc(Nc4ccncn4)c(NC(=O)COC)c(Nc4ccncn4)n3)c(C)c2C2CC2)c(F)c1` [Example 2-2-15, N-{2-[5-cyclopropyl-1-(4-ethoxy-2,6-difluorobenzyl)-4-methyl-1H-pyrazol-3-yl]-4,6-bis(pyrimidin-4-ylamino)pyrimidin-5-yl}-2-methoxyacetamide], the IC50 in assay [1] came out at 0.042 µM; with HeLa cell line (setting [3]), 4.7 µM.

Take `CCOc1cc(F)c(Cn2nc(-c3nc(N)cc(Nc4ccncc4)n3)c(C)c2C2CC2)c(F)c1` [Example 2-1-1, 2-[5-cyclopropyl-1-(4-ethoxy-2,6-difluorobenzyl)-4-methyl-1H-pyrazol-3-yl]-N-(pyridin-4-yl)pyrimidine-4,6-diamine]: the IC50 in assay [1] (setting [2]) was 0.01 µM; in the assay on HeLa cell line it was greater than 10 µM.

`CCOc1cc(F)c(Cn2nc(-c3nc(N)c(N4CCOCC4)c(Nc4ccncn4)n3)c(C)c2C2CC2)c(F)c1` [Example 2-1-7, 2-[5-cyclopropyl-1-(4-ethoxy-2,6-difluorobenzyl)-4-methyl-1H-pyrazol-3-yl]-5-(morpholin-4-yl)-N-(pyrimidin-4-yl)pyrimidine-4,6-diamine]: the IC50 came out at 0.0098 µM in assay [1] (setting [2]) and 5.3 µM in the assay with HeLa cell line.

On to `CCOc1cc(F)c(Cn2nc(-c3nc(N)c(OCCOC)c(Nc4ccncc4)n3)c(C)c2C2CC2)c(F)c1` [Example 2-1-25, 2-[5-cyclopropyl-1-(4-ethoxy-2,6-difluorobenzyl)-4-methyl-1H-pyrazol-3-yl]-5-(2-methoxyethoxy)-N-(pyridin-4-yl)pyrimidine-4,6-diamine], for which the IC50 in assay [1] (setting [2]) was 0.01 µM; in the assay on HeLa cell line, 3 µM.

Take `CCOc1cc(F)c(Cn2nc(-c3nc(N)c(NS(=O)(=O)CC)c(Nc4ccncc4)n3)c(C)c2C2CC2)c(F)c1` [Example 2-1-30, N-{4-amino-2-[5-cyclopropyl-1-(4-ethoxy-2,6-difluorobenzyl)-4-methyl-1H-pyrazol-3-yl]-6-(pyridin-4-ylamino)pyrimidin-5-yl}ethanesulfonamide]: the IC50 in assay [1] (setting [2]) was 0.0088 µM; with HeLa cell line, greater than 10 µM.

Consider `CCOc1cc(F)c(Cn2nc(-c3nc(N)nc(Nc4ccnnc4)n3)c(C)c2C2CC2)c(F)c1` [Example 2-1-24, 6-[5-cyclopropyl-1-(4-ethoxy-2,6-difluorobenzyl)-4-methyl-1H-pyrazol-3-yl]-N-(pyridazin-4-yl)-1,3,5-triazine-2,4-diamine], for which the IC50 in assay [1] is 0.13 µM; in the assay with HeLa cell line (setting [3]), 6 µM.

For `CCOc1cc(F)c(Cn2nc(-c3nc(N)c(NC(=O)COC)c(Nc4ccncc4)n3)c(C)c2C2CC2)c(F)c1` [Example 2-1-27, N-{4-amino-2-[5-cyclopropyl-1-(4-ethoxy-2,6-difluorobenzyl)-4-methyl-1H-pyrazol-3-yl]-6-(pyridin-4-ylamino)pyrimidin-5-yl}-2-methoxyacetamide], the IC50 is 0.016 µM in assay [1] (setting [2]) and greater than 10 µM in the assay on HeLa cell line.

Take `CCOc1cc(F)c(Cn2nc(-c3nc(N)nc(Nc4ccncn4)n3)c(C)c2C2CC2)c(F)c1` [Example 2-1-9, 6-[5-cyclopropyl-1-(4-ethoxy-2,6-difluorobenzyl)-4-methyl-1H-pyrazol-3-yl]-N-(pyrimidin-4-yl)-1,3,5-triazine-2,4-diamine]: the IC50 in assay [1] was 0.012 µM; in the assay with HeLa cell line (setting [3]), 6 µM.

Consider `CCOc1cc(F)c(Cn2nc(-c3nc4c(c(Nc5ccncn5)n3)OCC(=O)N4)c(C)c2C2CC2)c(F)c1` [Example 2-1-33, 2-[5-cyclopropyl-1-(4-ethoxy-2,6-difluorobenzyl)-4-methyl-1H-pyrazol-3-yl]-4-(pyrimidin-4-ylamino)-6H-pyrimido[5,4-b][1,4]oxazin-7(8H)-one], for which the values for the IC50 (in assay [1] (setting [2]); with HeLa cell line) were 0.034 µM and 10 µM, respectively.

As to `CCOc1cc(F)c(Cn2nc(-c3nc(N)cc(Nc4ccnc(OC)c4)n3)c(C)c2C2CC2)c(F)c1` [Example 2-1-2, 2-[5-cyclopropyl-1-(4-ethoxy-2,6-difluorobenzyl)-4-methyl-1H-pyrazol-3-yl]-N-(2-methoxypyridin-4-yl)pyrimidine-4,6-diamine], the IC50 was 0.26 µM in assay [1] (setting [2]) and 7.5 µM with HeLa cell line.

For `CCOc1cc(F)c(Cn2nc(-c3nc(Nc4ccncn4)c(OC)c(Nc4ccncn4)n3)c(C)c2C2CC2)c(F)c1` [Example 2-2-5, 2-[5-cyclopropyl-1-(4-ethoxy-2,6-difluorobenzyl)-4-methyl-1H-pyrazol-3-yl]-5-methoxy-N,N′-di(pyrimidin-4-yl)pyrimidine-4,6-diamine], the results for the IC50 (in assay [1] (setting [2]); in the assay with HeLa cell line) were 0.18 µM and greater than 10 µM, respectively.

`CCNC(=O)Nc1cc(Nc2ccncn2)nc(-c2nn(Cc3c(F)cc(OCC)cc3F)c(C3CC3)c2C)n1` [Example 2-1-11, 1-{2-[5-cyclopropyl-1-(4-ethoxy-2,6-difluorobenzyl)-4-methyl-1H-pyrazol-3-yl]-6-(pyrimidin-4-ylamino)pyrimidin-4-yl}-3-ethylurea]: the IC50 in assay [1] (setting [2]) worked out at 0.13 µM; with HeLa cell line, 4.9 µM.
